For the assay, the target named is T1, Poly (ADP-ribose) polymerase-1 (PARP-1) (Homo sapiens, UniProt P09874).
T1 construct: gene PARP1
The assay can be described thus: radioligand saturation binding in PC-3 tumor xenografts.

T1 sequence (P09874 2-1014): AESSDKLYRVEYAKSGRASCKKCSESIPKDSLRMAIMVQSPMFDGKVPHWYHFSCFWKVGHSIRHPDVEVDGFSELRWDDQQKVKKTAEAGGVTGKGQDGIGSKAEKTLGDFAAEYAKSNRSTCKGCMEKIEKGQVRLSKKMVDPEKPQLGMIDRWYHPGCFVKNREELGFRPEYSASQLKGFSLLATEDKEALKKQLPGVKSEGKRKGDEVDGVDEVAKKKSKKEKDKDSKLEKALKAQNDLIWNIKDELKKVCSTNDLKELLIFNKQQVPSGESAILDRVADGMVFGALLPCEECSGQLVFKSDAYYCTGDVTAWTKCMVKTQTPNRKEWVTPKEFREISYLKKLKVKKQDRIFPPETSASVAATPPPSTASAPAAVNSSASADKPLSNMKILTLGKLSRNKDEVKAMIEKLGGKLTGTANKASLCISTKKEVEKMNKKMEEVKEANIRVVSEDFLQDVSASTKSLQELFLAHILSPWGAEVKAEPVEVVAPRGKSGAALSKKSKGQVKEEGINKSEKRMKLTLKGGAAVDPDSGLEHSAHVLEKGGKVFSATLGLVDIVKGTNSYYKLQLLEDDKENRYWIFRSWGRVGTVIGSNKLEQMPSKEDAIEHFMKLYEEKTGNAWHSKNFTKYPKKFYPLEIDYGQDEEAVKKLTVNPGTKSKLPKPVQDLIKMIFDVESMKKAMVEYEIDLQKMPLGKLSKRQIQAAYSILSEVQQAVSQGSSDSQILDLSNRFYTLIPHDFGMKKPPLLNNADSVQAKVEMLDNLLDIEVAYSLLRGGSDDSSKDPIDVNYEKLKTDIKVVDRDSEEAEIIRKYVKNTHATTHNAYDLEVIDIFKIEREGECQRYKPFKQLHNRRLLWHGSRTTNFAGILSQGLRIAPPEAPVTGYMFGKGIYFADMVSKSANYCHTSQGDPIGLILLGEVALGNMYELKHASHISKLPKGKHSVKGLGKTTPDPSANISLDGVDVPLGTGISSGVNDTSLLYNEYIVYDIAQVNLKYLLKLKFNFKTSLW

Substance [^77Br]Br-WC-DZ registered a Kd of 580 ± 250 pM.
